# Data published in patent US11530216B2, “Deuterated colony stimulating factor-1 receptor (CSF-1R) inhibitors” (Genzyme Corporation, priority 2020, dated 2022).
# Read-outs that look alike come from different tables or passages of the source.
# Columns and labels:
# [1] = Human hepatocyte intrinsic clearance; format: in vitro ADME; conditions: human, hepatocytes
# Method: (§1) Incubations were performed in 0.5 million hepatocytes cells/mL at 1 μM concentration of test compound in duplicate with rat, human, dog, monkey, or mouse hepatocytes, and the concentration-time course of test compound depletion was determined after withdrawing samples from the incubation at assay time points followed by liquid chromatography with tandem mass spectrometry analysis. An organic solvent was used to terminate incubations.
# These available known AO substrates along with the test compounds were analyzed using three in vitro systems (pooled human liver cytosol, liver S-9 fractions and human hepatocytes isolated from livers perfused with HTK media). Scaled unbound intrinsic clearances were calculated for the test compounds/new chemical entities and were compared to the in vivo unbound intrinsic clearances of the known AO substrates.
# Caco-2 efflux assay = format: in vitro ADME; conditions: human
# Method: (§2) Caco-2 permeability and efflux assays were performed in cell-based permeability model using Caco-2/TC7 cells. For permeability assays, Caco-2/TC7 cells were seeded on to Millipore Millicell 96 and for efflux assays, 24-well plates were used. The plates with cells were ready to use between 21-25 days of culturing. Both permeability and efflux assays were performed using the TECAN automated liquid handling platform. For permeability assays, test compounds were prepared at 20 μM test concentrations in permeability assay buffer (10 mM HEPES in HBSS buffer, pH 6.5) containing 0.5% BSA. Basolateral permeability buffer (pH 7.4) contains 5% BSA. For efflux assays, test compounds were prepared at 1 μM test concentrations in permeability assay buffer (10 mM HEPES in HBSS buffer, pH 7.4) containing 0.5% BSA. For efflux assays, the basolateral permeability buffer (pH 7.4) contained 0.5% BSA. The permeability assay was initiated by adding 20 μM test solution to apical side of plate containing Caco-2/TC7 cells. In the efflux assay, 1 μM test compound was added to an apical compartment for apical to basolateral (A to B) permeability determination. For basolateral to apical (B to A) permeability determination, the test compound was added to the basolateral side. The plate was incubated for 90 min under constant shaking at 37° C. At the end of the incubation period, samples taken were analyzed using high pressure liquid chromatography with tandem mass spectrometry. For each assay, apparent permeability (Papp) and recovery was calculated from mass spectrometry data. For permeability assay, Papp values are reported as numbers×10^−07 cm/s. For efflux assays, the efflux ratio is calculated using Papp (basolateral to apical) to Papp (apical to basolateral), in addition to recovery values.
# [2] = Monkey hepatocyte intrinsic clearance; format: in vitro ADME; conditions: 1 μM, 0.5 million cells/mL
# Method: as §1
# C57BL/6 EAE model = assay: MOG-induced EAE model; format: in vivo, mouse; conditions: 15 mg/kg p.o. BID for 7 days; for mean disease scores: female C57BL/6J mice
# Method: Experimental autoimmune encephalomyelitis (EAE) is primarily used as a non-clinical model of autoimmune inflammatory diseases of the CNS, and resembles many aspects of human multiple sclerosis. The myelin oligodendrocyte glycoprotein (MOG)-induced EAE model is ideal for exploring this immune-mediated mechanism of neuroinflammation and demyelination.
# Test articles: • MOG35-55 peptide (New England Peptides, lot #BU01787)—250 μg/mouse in 4 mg/mL complete Freund's adjuvant (CFA; Chondrex Inc, Cat #7009, lot #190446) Bordetella pertussis toxin (PTX, Sigma, cat #P7208-5OUG, lot #MKCL 1350)—280 ng/mouse in 200 μL PBS • CSF-1R inhibitors—15 mg/kg • Vehicle—0.5% methylcellulose/0.2% Tween-80 Delivery: • MOG peptide & CFA: subcutaneous injection to 2 sites in the hind flank (100 μL/site). • Bordetella pertussis toxin: i.v. injection of 280 ng/mouse in 200 μL PBS on Day 0 and 2. • CSF1R inhibitor: oral gavage every 12 hours • Vehicle: oral gavage every 12 hours Time points: • Day 0—Administer MOG peptide in CFA and PTX to Groups 1-3 • Day 2—Administer PTX by i.v. to Groups 1-3 • Day 9—Begin daily scoring of mice • Day 11-14—Randomize mice to groups when reach score of 1 and begin treatment • Day ˜18-21—After 7 days of treatment, perfuse mice and euthanize animals.
# Mice were clinically assessed daily for signs of paralytic disease and weighed intermittently to document weight loss. At study termination, ½ brain was fixed for histology and brain/liver/plasma were collected for exposure. Spinal cord and whole blood was collected for flow cytometry. Additional plasma aliquots were saved for follow up analysis.
# Female C57BL/6J mice were immunized with an emulsion of MOG35-55 peptide (250 μg/mouse) in complete Freund's adjuvant (CFA). […] Following EAE induction, the mice were monitored daily for paralytic symptoms and scored for their clinical presentation using a progressive scoring system (Score 0: no disease; Score 1: flaccid tail; Score 2: hindlimb weakness; Score 3: hindlimb paralysis; Score 4: Front limb weakness or partial paralysis; Score 5: death). […]
# [3] = Caco-2 permeability assay; format: in vitro ADME; conditions: human; for Papp at 90 min, 20 μM: apical pH 6.5, 90 min
# Method: as §2
SMILES,CLint scaled at 1 μM [1],hepatocyte CLint at 1 μM [1],"Papp A→B at 90 min, 1 μM (Caco-2 efflux assay)","Papp B→A at 90 min, 1 μM (Caco-2 efflux assay)","recovery at 90 min, 1 μM (Caco-2 efflux assay; read-out: Recovery A to B)","recovery at 90 min, 1 μM (Caco-2 efflux assay; read-out: Recovery B to A)",Monkey Hepatocyte Intrinsic Clearance [2],mean disease scores (C57BL/6 EAE model),"recovery at 90 min, 20 μM [3]","Papp at 90 min, 20 μM [3]",paralytic symptoms (C57BL/6 EAE model; compared with Compound 24)
COc1ccc(C2Oc3c(OC)cc(Cn4cnc5cccnc54)cc3O[C@H]2C)cn1 (stereo partly drawn) [Compound 24],32.3 mL/min/kg,12.7 µL/min/1e6 cells,12.5 ×10⁻⁶ cm/s,25.6 ×10⁻⁶ cm/s,93%,94%,>92 μL/min/10^7 cells,significantly mean disease scores,80%,37.7 ×10⁻⁶ cm/s,
"[2H]c1nc2cccnc2n1Cc1cc(OC)c2c(c1)O[C@@H](C)[C@H](c1ccc(OC)nc1)O2 [Compound 6, 3-(((2S,3S)-8-methoxy-2-(6-methoxypyridin-3-yl)-3-methyl-2,3-dihydrobenzo[b][1,4]dioxin-6-yl)methyl)-3H-imidazo[4,5-b]pyridine-2-d]",20 mL/min/kg,7.88 µL/min/1e6 cells,13.5 ×10⁻⁶ cm/s,29.2 ×10⁻⁶ cm/s,88%,82.5%,27.2 μL/min/10^7 cells,significantly mean disease scores,73%,37.7 ×10⁻⁶ cm/s,ameliorated paralytic symptoms to a surprisingly greater extent than nondeuterated Compound 24
